Laboratory results from patent US20100273748A1, “ANTIMICROBIAL THERAPY” (priority 2006, published 2010).

Legend:
keratinocytes = assay: Keratinocyte morphology, LDH release and Annexin V/propidium iodide staining; type: cell-based, human; conditions: 24 hours after butyrate alone or in combination with 1,25D3
S. aureus [1] = assay: Electron microscopy of bacterial cell wall lysis; type: cell-based
Staphylococcus aureus = assay: Bacterial growth inhibition (turbidity OD600) with or without carbonate; type: cell-based; conditions: for inhibition of S. aureus growth: 32 μM LL-37
S. aureus DmprF = assay: Antimicrobial activity of keratinocyte lysates (bacterial growth, OD600); type: cell-based, Staphylococcus aureus; conditions: versus unstimulated keratinocytes
Protocol: Panel a: NHEKs were stimulated with 1,25D3 (10^−9-10^−7 M) in the presence of the HDAC inhibitor butyrate (BUT; 2 mM) for 24 hours. mRNA abundance was determined by real-time qPCR for cathelicidin and glyceraldehyde-3-phosphate dehydrogenase and normalized to vehicle-treated controls. […] Data shown are means (7SD) of the results from a single stimulation experiment performed in triplicates and are representative of at least three independent experiments (**P<0.01; ***P<0.001; two-way analysis of variance). Panel b: The HDAC inhibitor TSA (200 ng ml^−1) induces cathelicidin in the presence of 1,25D3 (10^−8M). Expression of cathelicidin is dependent on a functional VDR, as pretreatment with the VDR antagonist ZK159222 (10^−7 M) inhibits induction of cathelicidin with BUT (2 mM) in the presence of 1,25D3 (10^−8 M) after 24 hours. Expression of cathelicidin was determined by qPCR as described in Panel a. (*P<0.05; Student's t-test). Panel c: Increased transcript correlates with enhanced cathelicidin protein expression after HDAC inhibitor and 1,25D3 stimulation. NHEKs grown on chamber slides were stimulated with the vehicle, 1,25D3 (10^−8M), BUT (2 mM), or the combination for 24 hours. Cells were stained with a polyclonal anti-LL-37 antibody (followed by an FITC-coupled secondary antibody) and nuclei detected with 4,6-diamidino-2-phenylindole (Bar=30 μM). […] NHEKs were stimulated with 1,25D3 (10^−8M) in combination with the HDAC inhibitor BUT (2 mM) for 24 hours, cells harvested and cell lysates co-incubated with S. aureus DmprF, and bacterial growth monitored over time to determine antimicrobial activity. Media not containing cell lysates or containing cell lysates from unstimulated cells were used as controls.

cathelicidin = assay: qPCR of cathelicidin mRNA in cultured keratinocytes; type: cell-based, human; conditions: normal human keratinocytes and HaCat cell line
Protocol: Cell culture and stimuli. Human keratinocytes were grown in serum-free EpiLife® cell culture media (Cascade Biologics; Portland, Oreg.) containing 0.06 mM Ca2+ and 1× EpiLife® defined growth supplement (EDGS) at 37° C. under standard tissue culture conditions. Stock cultures were maintained for up to five passages in this media with the addition of 50 U/mL penicillin and 50 μg/mL streptomycin. HaCaT keratinocytes were cultured in DMEM (Sigma, St. Louis, Mo.) with 10% FCS. Cells at 50-70% confluence were stimulated in fresh medium after preincubation with 1,25(OH)2 vitamin D3 (1,25D3; 0.1-100 nM, 4-24 h; Sigma). Alternatively, NHEK were stimulated in the presence of 1,25D3 (0.1-100 nM). Stimuli included TLR2,6 ligands Malp-2 (0.001-0.5 μg/ml; Alexis Biochemicals, Carlsbad, Calif.), FSL-1 (1-2 μg/ml, Invivogen, San Diego, Calif.) and zymosan (50 μg/ml; Invivogen), as well as flagellin (50 ng/ml; Alexis), LPS (1 μg/ml; Sigma), lipoteichoic acid (LTA; 10 μg/ml; Sigma), 19 kDA lipopeptide (10 μg/ml, a kind gift from S. Krutzik, Division of Dermatology, UCLA), CpG DNA (10 μg/ml; Sigma), Ca2+ (1.7 mM), LPS (1 μg/ml; Sigma), TNFα (20 ng/ml; Chemicon Temecula, Calif.) and TGFβ1 (0.1-1 μg/ml; R&D Systems, Minneapolis, Minn.). A TLR2 blocking antibody (αTLR2; clone TL2.1, 5 μg/ml, eBioscience, San Diego, Calif.) was utilized to investigate the role of TLR2 signaling. Furthermore, keratinocytes were pretreated with a vitamin D receptor antagonist (VDR-antagonist ZK159222 Schering AG; 10^-7M) or the CYP inhibitor itraconazole (ITRA; 10^-7M) before stimulation with TGFβ in the presence of 25OH vitamin D3 (25D3, 10 nM, Sigma).
Real-time RT-PCR (qPCR). RNA was extracted from cells, epidermal constructs or tissue using Trizol® and 1 μg RNA was reverse transcribed using iScript® (BioRad, Hercules, Calif.). Expression of cathelicidin and GAPDH was analysed by real-time RT-PCR. Predeveloped Taqman® assay probes (ABI, Foster City, Calif.) were used for the analyses of the expression of CYP24A1 (24-hydroxylase), CYP27B1 (1α-hydroxylase), CD14, CD36, TLR1, TLR2, TLR4, TLR6 and murine CD14. All analyses were performed in triplicate from 2-5 independent experiments in an ABI Prism® 7000 Sequence Detection System. Fold induction relative to the vehicle treated control in in vitro experiments was calculated using the comparative Ct method, where ΔΔCt is ΔCt(stimulant)-ΔCt(vehicle), ΔCt is Ct(gene)-Ct(GAPDH) and Ct is the cycle at which an arbitrary detection threshold is crossed. For quantification of transcript abundance in tissue samples target gene expression was normalized to GAPDH and compared to non-treated or non-injured skin.

S. aureus [2] = assay: Release of cytoplasmic-expressed beta-galactosidase (membrane disruption); type: cell-based; conditions: with versus without NaHCO3
Protocol: Release of cytoplasmic-expressed beta-galactosidase was measured from bacteria with and without the addition of NaHCO3.

[3] = tested on: Staphylococcus aureus mprF; assay: Radial diffusion assay; type: cell-based
Protocol: Sweat collection and processing. Sweat was collected on paper tissues (Kimwipes, Kimberly-Clark, Ga.) from healthy volunteers after exercise. After collection, 20 ml of sweat was centrifuged at 2000 g for 15 min. at 4° C., filtered through a […] (Acrodisc syringe filter, 0.2 mm, low protein binding, Fisher scientific, Tustin, Calif.), and frozen at −80° C. For some experiments sweat was lyophilized to dryness, then suspended in 400 μl of distilled water (DW: cell culture grade, endotoxin free, GibcoBRL, Grand island, NY). For analysis of LL37 processing by sweat, 1.6 nmol of LL-37 synthetic peptide was incubated in 50 ml of sweat for 0, 1, 6, 24 hrs at 37° C. or 4° C. In some experiments proteinase inhibitors including; mixed protease inhibitor cocktail (1tab/10 ml, Roche, Indianapolis, Ind.), […] Bestatin, 10 mg/ml E-64, 10 mg/ml Aprotinin, (Sigma, St Louis, Mo.); 100 mM AEBSF, 100 mM Neutrophil elastase inhibitor (NEI) or 100 mM leukocyte elastase inhibitor (LEI) (Calbiochem, San Diego, Calif.) were added during incubation. After incubation, 2 ml was assayed by radial diffusion assay to determine antibacterial activity. For analysis by HPLC 32 nmoles LL-37 was incubated in 100u1. To control for potential contamination from paper tissues, parallel processing was done on tissues soaked in phosphate-buffered saline (PBS:137 mM NaCl, 2.7 mM KCL, 4.3 mM Na2HPO4-H2O, 1.4 mM KH2PO4, pH 7.4). No antimicrobial activity was detectable in these preparations. Protein concentrations were evaluated by BCA assay (protein assay reagent, Pierce, Rockford, Ill.) or Bradford protein assay (Bio-Rad, Hercules, Calif.) according to manufacture's instructions. Human tissue and blood collection was approved by the UCSD Human Research Protection Program.
Antimicrobial assays. For screening of antimicrobial activity of HPLC fractions, radial diffusion assay was used. Lyophilized HPLC fractions were dissolved in DW (GibcoBRL, Grand Island, N.Y.), and tested against Staphylococcus aureus mprF. Thin plates (1 mm) of 1% agarose in 0.5% tryptone containing approximately 1×10^6 cells/ml of S. aureus mprF were used. 1 mm wells were punched in the plates and […] of samples dissolved in tissue culture grade sterile water were loaded in each well.

dendritic cells = assay: Pro-inflammatory chemokine release from dendritic cells; type: cell-based
IL-8 = IL-8 release from normal human keratinocytes (ELISA); type: cell-based
Protocol: Measurement of IL-8 release from keratinocytes Normal human keratinocytes (NHK) were cultured in EpiLife cell medium (Cascade Biologics, Portland, Oreg.) containing 0.06 mM Ca2+, 1× EpiLife-defined growth supplement (EDGS), 50 U/ml penicillin and […] streptomycin (Invitrogen, Carlsbad, Calif.). Keratinocytes were seeded in a 96-well plate and grown to confluence under standard tissue culture conditions. Cells were incubated with […] LL-37 or LL37-derived peptides (e.g., cathelicidin functional fragments) for 8 hours at 37° C. Supernatants were collected and stored at −20° C. overnight. IL-8 ELISA Assay was performed according to the manufacturer's instructions (BD OptEIA, Pharmingen, San Diego, Calif.). Supernatants were diluted 1:10 for assay. Simultaneously, LDH assays (Roche, Indianapolis, Ind.) were used to assess the cytotoxicity of peptides to keratinocytes. LDH release following peptide exposure was compared to release induced by 1% Triton X100.

neutrophil and mast cell = assay: Neutrophil and mast cell chemotaxis; type: cell-based
FPRL-1 = target: T1, FPRL-1 (Homo sapiens, UniProt P25090); assay: FPRL-1 binding
T1 sequence (P25090 1-351): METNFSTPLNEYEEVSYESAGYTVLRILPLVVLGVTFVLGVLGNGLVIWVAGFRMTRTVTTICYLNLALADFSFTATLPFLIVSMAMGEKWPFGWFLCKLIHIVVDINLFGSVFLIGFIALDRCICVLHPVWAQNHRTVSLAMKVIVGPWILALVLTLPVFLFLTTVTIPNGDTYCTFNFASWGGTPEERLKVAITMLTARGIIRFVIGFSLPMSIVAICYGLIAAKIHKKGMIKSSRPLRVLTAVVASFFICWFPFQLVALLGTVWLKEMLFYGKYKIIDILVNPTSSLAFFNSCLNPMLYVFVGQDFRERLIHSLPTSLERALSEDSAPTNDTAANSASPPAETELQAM

[4] = tested on: wild-type S. aureus (clinical isolate); assay: Radial diffusion assay; type: cell-based
CYP27B1 = assay: qPCR of CYP27B1 mRNA in cultured keratinocytes; type: cell-based, human; conditions: 24 hours, TGF 1 μg/ml, TNFα 20 ng/ml, TLR2 ligand Malp-2
Protocol: Cell culture and stimuli. Human keratinocytes were grown in serum-free EpiLife® cell culture media (Cascade Biologics; Portland, Oreg.) containing 0.06 mM Ca2+ and 1× EpiLife® defined growth supplement (EDGS) at 37° C. under standard tissue culture conditions. Stock cultures were maintained for up to five passages in this media with the addition of 50 U/mL penicillin and 50 μg/mL streptomycin. HaCaT keratinocytes were cultured in DMEM (Sigma, St. Louis, Mo.) with 10% FCS. Cells at 50-70% confluence were stimulated in fresh medium after preincubation with 1,25(OH)2 vitamin D3 (1,25D3; 0.1-100 nM, 4-24 h; Sigma). Alternatively, NHEK were stimulated in the presence of 1,25D3 (0.1-100 nM). […]
Real-time RT-PCR (qPCR). […] Expression of cathelicidin and GAPDH was analysed by real-time RT-PCR. […] Fold induction relative to the vehicle treated control in in vitro experiments was calculated using the comparative Ct method, where ΔΔCt is ΔCt(stimulant)-ΔCt(vehicle), ΔCt is Ct(gene)-Ct(GAPDH) and Ct is the cycle at which an arbitrary detection threshold is crossed. For quantification of transcript abundance in tissue samples target gene expression was normalized to GAPDH and compared to non-treated or non-injured skin.

`CCCC(=O)O` [butyrate] was tested, and the “cell morphology, cell death or apoptosis” value (keratinocytes) was “no change was seen in cell morphology, cell death or apoptosis”.
With `O=C(O)O` [NaHCO3] the “bacterial cell wall damage (EM)” value (S. aureus [1]; 25 mm NaHCO3 alone) was “no visible effect”, the “effect of NaHCO3 alone on bacterial growth” value (Staphylococcus aureus; 25 mM NaHCO3, no peptide) was “without effecting bacterial growth” and the “effect of NaHCO3 alone on bacterial growth” value (Staphylococcus aureus; high concentrations of NaHCO3) was “retarded the growth of S. aureus”. The “increase of LL-37 antimicrobial activity by carbonate containing compound” value (Staphylococcus aureus; medium with 32 μM LL-37, pH 7.4, KHCO3 and Na2CO3 at 50 mM) was “responsible for this increase”.
For `C=C1CC[C@H](O)C/C1=C/C=C1\CCC[C@]2(C)[C@@H]([C@H](C)CCCC(C)C)CC[C@@H]12` [Vitamin D3], the “antimicrobial activity of stimulated keratinocytes against Staphalococcus aureus” value (S. aureus DmprF) was “enhanced antimicrobial activity” and the expression of cathelicidin (cathelicidin) was “induced the expression of cathelicidin”.
Polymyxin B was tested, and the “leakage of cytoplasmic protein (beta-galactosidase)” value (S. aureus [2]) was “induces greater leakage of cytoplasmic protein with carbonate”.
In the case of “LLGDFFRKSKEKIGKEFKRIVQRIKDFLRNLVPRTES [LL-37]”, the “zone of inhibition after incubation of LL-37 in PBS or distilled water” value ([3]; identical conditions in PBS or distilled water) is reported as “did not affect activity”, the “zone of inhibition after incubation of LL-37 in sweat” value ([3]; incubation at 37° C. in sweat) is reported as “increased the zone of inhibition and apparent antimicrobial activity” and the “zone of inhibition after incubation of LL-37 in sweat” value ([3]; incubation in sweat at 4° C.) is reported as “did not occur at 4 °C”. The “pro-inflammatory chemokine release from dendritic cells” value (dendritic cells) was “blocks pro-inflammatory chemokine release”, the “bacterial cell wall damage (EM)” value (S. aureus [1]; 32 μM LL-37, absence of NaHCO3, four hours) was “caused a small amount of damage to bacterial cell walls” and the “bacterial cell wall damage (EM)” value (S. aureus [1]; 32 μM LL-37 with 25 mM NaHCO3, four hours) was “totally ablated them”. The “leakage of cytoplasmic protein (beta-galactosidase)” value (S. aureus [2]) was “induces greater leakage of cytoplasmic protein with carbonate”, the “inhibition of S. aureus growth” value (Staphylococcus aureus; TSB media alone, or with NaCl and FBS) was “inhibited Staphalococcus aureus growth poorly” and the “inhibition of S. aureus growth” value (Staphylococcus aureus; in the presence of MEM buffers) was “inhibition was greatly increased”. The “growth of S. aureus” value (Staphylococcus aureus; 32 μM LL-37 with 25 mM NaHCO3, pH 7.4) was “complete inhibition of bacterial growth”, the “antimicrobial activity of LL-37, bicarbonate versus pH” value (Staphylococcus aureus; 50 mM NaHCO3 or 50 mM glycine buffer at various pH) was “Only bicarbonate containing media was able to confer increased antimicrobial activity” and the “change of minimal inhibitory concentration (MIC) by NaHCO3” value (Staphylococcus aureus; 20% TSB, 1 mM NaH2PO4, with or without 50 mM NaHCO3, pH 7.4) was “greatly reduced”. The “pro-inflammatory release from keratinocytes” value (IL-8) was “induces pro-inflammatory release”, the “neutrophil and mast cell chemotaxis” value (neutrophil and mast cell) was “induces neutrophil and mast cell chemotaxis” and the “binding to FPRL-1” value (FPRL-1) was “bind FPRL-1”. For the same molecule, the “Radial Diffusion Assay, minimal inhibitory concentration (MIC), S. aureus (wt)” value [4] was 4 μm.
With TNFα the CYP27B1 expression (CYP27B1) was “had no effect”.
